# Data: PubChem BioAssay (NCI)
#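 Assay format: 96-well plates, 48-hour exposure. TGI is the concentration that stops growth completely.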
# How the values were obtained:
# Test in all cases: NCI anticancer screen, dose series, 48 h
# [1] = system: T-47D breast
# [2] = system: MALME-3M melanoma
# [3] = system: NCI-H460 lung
# [4] = system: MDA-MB-435
# [5] = system: SR leukemia
# [6] = system: MDA-MB-231 breast
# [7] = system: SF-539 CNS
# [8] = system: MDA-N
# [9] = system: TK-10 renal
# [10] = system: SK-OV-3 ovarian
# [11] = system: NCI/ADR-RES ovarian
SMILES,TGI [1],TGI [2],TGI [3],TGI [4],TGI [5],TGI [6],TGI [7],TGI [8],TGI [9],TGI [10],TGI [11]
COc1ccc2c(c1OC)C(=O)N/C2=C\c1c(CCN(C)C)cc2c(c1OC)OCO2,> 100 µM,> 100 µM,> 100 µM,> 100 µM,> 100 µM,> 100 µM,> 100 µM,> 100 µM,> 100 µM,> 100 µM,–
O=C(O)c1ccc([C@@H]2C(=O)N(O)[C@@H]3C=CC[C@@H]32)cc1,–,> 100 µM,–,–,–,–,> 100 µM,–,> 100 µM,> 100 µM,–
COc1cc(C2OC[C@@H]3C(=O)OC[C@H]23)cc(O)c1OC (stereo partly specified),> 100 µM,–,> 100 µM,> 100 µM,> 100 µM,> 100 µM,> 100 µM,> 100 µM,> 100 µM,> 100 µM,> 100 µM
NC(=O)CCC(NC(=O)c1c2ccccc2nc2ccccc12)C(=O)O (stereo unspecified),–,> 100 µM,> 100 µM,> 100 µM,–,> 100 µM,> 100 µM,> 100 µM,> 100 µM,> 100 µM,> 100 µM
CC1=N[C@@](C)(C2CC3C=CC2C3=O)COC1=O (stereo partly specified),> 100 µM,> 100 µM,> 100 µM,> 100 µM,> 100 µM,> 100 µM,> 100 µM,> 100 µM,> 100 µM,> 100 µM,–
NC(CCCCNCc1ccccc1)C(=O)O (stereo unspecified),–,> 100 µM,> 100 µM,–,–,–,> 100 µM,–,> 100 µM,> 100 µM,–
C=CCCCC1(C)CCNC1=S (stereo unspecified),> 100 µM,–,> 100 µM,> 100 µM,–,> 100 µM,> 100 µM,> 100 µM,> 100 µM,> 100 µM,–
CC(=O)NNc1nc(C)c(C(=O)/C=C/c2ccc(Cl)c(Cl)c2)s1,–,> 100 µM,> 100 µM,–,–,–,> 100 µM,–,> 100 µM,> 100 µM,–
Cc1cc(C)nc(NS(=O)(=O)c2ccc(NC(=O)NC(F)(F)F)cc2)n1,> 100 µM,–,–,> 100 µM,> 100 µM,–,> 100 µM,> 100 µM,> 100 µM,> 100 µM,> 100 µM
O=c1[nH]nc(Cc2ccccc2)n1/N=C/c1ccc([N+](=O)[O-])cc1,> 100 µM,> 100 µM,> 100 µM,> 100 µM,–,> 100 µM,> 100 µM,> 100 µM,> 100 µM,–,> 100 µM
CC(C)C(Sc1nc(-c2ccccc2)c(-c2ccccc2)[nH]1)c1n[nH]c(=S)n1-c1ccccc1 (stereo unspecified),–,50.9 µM,> 100 µM,–,92.3 µM,–,40.4 µM,–,> 100 µM,> 100 µM,–
COc1ccc(/C=C/C(=O)c2sc(-c3cccnc3)nc2C)cc1,–,> 100 µM,> 100 µM,–,–,–,65 µM,–,> 100 µM,> 100 µM,–
COc1ccccc1NC(=O)CC(=O)N1N=C(c2ccccc2)C(N=Nc2ccc(Cl)cc2)C1=O (stereo unspecified),–,–,> 100 µM,–,> 100 µM,–,> 100 µM,–,52.3 µM,51.8 µM,–
Cc1nc2c3c(ccc2[nH]c1=O)C(=O)c1ccccc1C3=O,–,> 100 µM,> 100 µM,–,> 100 µM,–,> 100 µM,–,> 100 µM,> 100 µM,–
COc1ccc(/C=C2\CCC(CCN3CCOCC3)C2=O)cc1 (stereo unspecified),–,> 100 µM,> 100 µM,–,> 100 µM,–,> 100 µM,–,> 100 µM,–,–
COc1ccc2c(c1)[n+]([O-])c(/C(C)=N/NC(=O)c1ccccc1O)c(C)[n+]2[O-],–,> 100 µM,> 100 µM,–,–,–,> 100 µM,–,> 100 µM,> 100 µM,–
NC(N)=NS(=O)(=O)c1ccc(NC(=O)c2cccc3c(N)c4ccccc4nc23)cc1,–,> 100 µM,> 100 µM,–,–,–,> 100 µM,–,> 100 µM,> 100 µM,–
O=c1[nH]c(=O)n(CCOc2ccc(Cl)cc2)cc1Nc1ccccc1,–,–,> 100 µM,> 100 µM,> 100 µM,–,–,> 100 µM,–,–,> 100 µM
CN(C)c1ccc(/C=C(\NC(=O)c2ccccc2)C(=O)Nc2cccc(C(=O)NCCCO)c2)cc1,> 100 µM,> 100 µM,> 100 µM,> 100 µM,–,> 100 µM,> 100 µM,> 100 µM,> 100 µM,> 100 µM,> 100 µM
CCOc1cccc(-c2cc(=O)c3cc4c(cc3[nH]2)OCO4)c1,> 100 µM,> 75.1 µM,> 61.8 µM,0.0528 µM,–,–,0.549 µM,> 100 µM,8.45 µM,–,0.294 µM
Cc1cc(S(=O)(=O)NC(=NCCc2ccccc2)NN)c(S)cc1Cl,63 µM,68.6 µM,–,61.1 µM,> 100 µM,> 100 µM,51.3 µM,–,> 100 µM,53.7 µM,57.8 µM
CC(C)c1ccc(/C=C/c2cc(C(=O)NNC(=O)NC3CCCCC3)nc(=S)[nH]2)cc1,–,> 100 µM,> 100 µM,–,–,–,> 100 µM,–,> 100 µM,> 100 µM,–
CC(C)(C)[Si](C)(C)OCC1OC(n2ccc(=O)[nH]c2=O)C(O[Si](C)(C)C(C)(C)C)[C@]12O[C@@H]2CO (stereo partly specified),–,–,35.1 µM,35.3 µM,> 100 µM,39.6 µM,47.7 µM,59 µM,31 µM,30.5 µM,44 µM
CC(C)(C)n1c(=O)n2n(c1=O)C1c3cccc4cccc(c34)C2C2c3cccc4cccc(c34)C1n1c(=O)n(C(C)(C)C)c(=O)n12,> 100 µM,> 100 µM,> 100 µM,> 100 µM,–,> 100 µM,> 100 µM,> 100 µM,> 100 µM,> 100 µM,> 100 µM
O=C(Cc1nc2ccc([N+](=O)[O-])cc2[nH]c1=O)C(=O)Nc1ccccc1[N+](=O)[O-],–,> 100 µM,> 100 µM,–,–,–,> 100 µM,–,> 100 µM,> 100 µM,–
C#CCOCn1cc(C)c(=O)[nH]c1=O,> 100 µM,> 100 µM,> 100 µM,–,> 100 µM,> 100 µM,> 100 µM,> 100 µM,> 100 µM,> 100 µM,> 100 µM
